One series addresses Alpha-synuclein (Homo sapiens, UniProt P37840). The series is described as follows: Inhibition of recombinant human Alpha-synuclein aggregation expressed in Escherichia coli incubated for 72 hrs by ThT fluorescence assay.
Series [1] in a line: Apparent permeability across basolateral to apical side in MDCKII-MDR1 cells at 10 uM by LC-MS/MS analysis. The settings on record: dog, MDCK-MDR1. Type of series: ADME, cell-based, Canis lupus familiaris.
Series [2] in a line: Apparent permeability across apical to basolateral side in MDCKII-MDR1 cells at 10 uM by LC-MS/MS analysis. Type of series: ADME, cell-based, Canis lupus familiaris. The settings on record: dog, MDCK-MDR1.
A short description of series [3]: Efflux ratio of apparent permeability from basolateral to apical side over apical to basolateral side in […] cells at 10 uM by LC-MS/MS analysis. Type of series: ADME, cell-based, Canis lupus familiaris. The settings on record: dog, MDCK-MDR1.

Each structure is given as a SMILES string.

Turning to `O=C(O[C@@H]1Cc2c(O)cc(O)cc2O[C@H]1c1cc(O)c(O)c(O)c1)c1cc(O)c(O)c(O)c1` [GALLOCATECHIN GALLATE], the half-maximal inhibitory concentration (IC50) at Alpha-synuclein was 1.06 µM.

In the case of `O=C(/C=C/c1ccc(/C=C/C(=O)c2ccc(O)c(F)c2)cc1)c1ccc(O)c(F)c1`, in series [1], the Papp B→A at 10 µM worked out at 956 nm/s. Further, in series [2], the Papp A→B at 10 µM stood at 114 nm/s.

As to `CC(C)NCC(O)COc1cccc2ccccc12` (configuration not stated) [PROPRANOLOL], the Papp B→A at 10 µM in series [1] worked out at 970 nm/s. In addition, the efflux ratio at 10 µM in series [3] amounted to 2.66. Further, the Papp A→B at 10 µM in series [2] came to 365 nm/s.

`COc1cc(/C=C/C(=O)c2cc(O)cc(O)c2)c(OC)cc1/C=C/C(=O)c1cc(O)cc(O)c1`: the Papp B→A at 10 µM in series [1] stood at 932 nm/s. Besides, the Papp A→B at 10 µM in series [2] was 77.1 nm/s.

In the case of `COc1cc(/C=C/C(=O)c2ccc(O)c(O)c2)c(OC)cc1/C=C/C(=O)c1ccc(O)c(O)c1`, the Papp B→A at 10 µM in series [1] is 960 nm/s. Further, the Papp A→B at 10 µM in series [2] was 135 nm/s.

Take `O=C(/C=C/c1ccc(/C=C/C(=O)c2ccc(O)c(O)c2)cc1)c1ccc(O)c(O)c1`: the Papp B→A at 10 µM in series [1] came out at 747 nm/s. The Papp A→B at 10 µM in series [2] is 162 nm/s.

(Values after ChEMBL document CHEMBL5338708, “Bis-chalcone polyphenols with potential preventive and therapeutic effects on PD: Design, synthesis and in vitro disaggregation activity against α-synuclein oligomers and fibrils” (Eur J Med Chem, 2022).)
